Test results: patent publication US9258995B2, “Organ cold storage composition and methods of use” (BOARD OF TRUSTEES OF THE UNIVERSITY OF ARKANSAS, priority 2009, dated 2016)

Tests used:
[1] = tested on: NRK cells; conditions: 24 h CS of NRK cells; cited from earlier work
[2] = tested on: rat kidneys; experiment: TUNEL staining of renal cell death during CS; conditions: 4 h CS, 100 μM
Experimental: All animals were treated according to the National Institutes of Health Guide for the Care and Use of Laboratory Animals and the University of Arkansas for Medical Sciences Institutional Animal Care and Use Committee guidelines. Male Fischer 344 inbred rats (Charles Rivers Laboratories, Inc., Wilmington, Mass.) weighing between 250 and 300 g were anesthetized with ethrane, followed by shaving and prepping with betadine. […] Bulldog clamps were placed on the aorta and vena cava (proximal and distal to the renal vessels) to prevent blood flow to the kidneys. A 22-gauge surgical needle was used to puncture the rat's aorta to flush the renal grafts with saline (10 ml per kidney) using a small catheter. Once the kidneys started to turn light brown (perfusion), another vent was formed in the vena cava to allow blood flow from the kidneys. […]
Cell cytotoxicity was determined using the LDH-Cytotoxicity Assay Kit II (Biovision Research Products, Mountain View, Calif.) according to the manufacturer's instructions. Absorbance was measured at 450 nm using a SpectraMax 190 microplate reader and SpectraMax software (Molecular Devices, Sunnyvale, Calif.). Renal cell death was determined using TUNEL staining. […] The amount of cell death was calculated by averaging the number of cells positive for TUNEL (brown staining) in 10 different fields (cortex and medulla) (20×). […]

[3] = tested on: rat kidneys; experiment: MitoSOX Red mitochondrial superoxide generation, cold storage ex vivo model; conditions: rat kidneys, 4 h CS at 4° C., 100 μM
Experimental: (§1) All animals were treated according to the National Institutes of Health Guide for the Care and Use of Laboratory Animals and the University of Arkansas for Medical Sciences Institutional Animal Care and Use Committee guidelines. Male Fischer 344 inbred rats (Charles Rivers Laboratories, Inc., Wilmington, Mass.) weighing between 250 and 300 g were anesthetized with ethrane, followed by shaving and prepping with betadine. […] Bulldog clamps were placed on the aorta and vena cava (proximal and distal to the renal vessels) to prevent blood flow to the kidneys. A 22-gauge surgical needle was used to puncture the rat's aorta to flush the renal grafts with saline (10 ml per kidney) using a small catheter. Once the kidneys started to turn light brown (perfusion), another vent was formed in the vena cava to allow blood flow from the kidneys. Once both kidneys were completely flushed, the right kidney was recovered and served as a control (group 1), and the left kidney was exposed to CS alone for 4 h at 4° C. (group 2). In additional experiments, kidneys were flushed with saline through the aorta using a small catheter followed by flushing the right kidney with saline containing MitoQ (100 μM) and the left kidney with saline containing DecylTPP (100 μM) (10 ml per kidney). Tissues were recovered and stored in CS+MitoQ (100 μM; right kidney) or CS+DecylTPP (100 μM; left kidney) for 4 h at 4° C. (groups 3 and 4, respectively). […]
(§2) MitoSOX Red (Invitrogen) was used to measure mitochondrial superoxide generation during CS. […] Fluorescence was visualized using an Eclipse E800 microscope (Nikon, Melville, N.Y.) with a rhodamine filter using a water immersion objective (60×). Fluorescent images of NRK cells were captured with equal exposure times and quantified by averaging the mean intensity fluorescence of five random cells in three different fields using Nikon N is Elements software. In separate experiments, cells were grown on coverslips, preloaded with MitoSOX Red before treatment (groups 1-4), and evaluated for mitochondrial superoxide generation using a Hitachi F-2500 spectrofluorometer (Hitachi, Tokyo, Japan) equipped with a coverslip holder using two different excitation wavelengths: 396 and 510 nm with the emission measured at 580 nm as previously described. In addition, rat kidneys were monitored for mitochondrial superoxide generation by flushing kidneys with saline through the aorta using a small catheter as described under Cold Storage Ex Vivo Model, followed by saline containing MitoSOX Red (5 μM; 10 ml/kidney) before treatment (groups 1-4). Paraffin sections were analyzed using the rhodamine filter on the Nikon Eclipse 800 microscope (20×).

[4] = tested on: mitochondrial respiratory complex II; experiment: Mitochondrial respiratory complex activity, NRK cell mitochondria after CS; format: cell-based, rat; conditions: NRK cells, 4-h CS, 1 μM
Experimental: (§3) Normal rat kidney proximal tubular cells (NRK-52E; American Type Culture Collection, Manassas, Va.) were maintained in six-well 100 or 150-mm, or 150-mm plates in a humidified incubator gassed with 5% CO2 and 95% air at 37° C. in DMEM (Invitrogen, Carlsbad, Calif.) containing 5% fetal calf serum (FCS). Cells were grown to 60% confluence and divided into four treatment groups: 1) untreated (Untx), 2) CS, 3) CS+MitoQ, and 4) CS+DecylTPP. Untreated cells remained at 37° C. in DMEM containing 5% FCS (group 1). CS was initiated by washing cells with cold PBS (Invitrogen) twice and storing them in UW/Viaspan solution alone (4 h at 4° C.) (group 2), CS+MitoQ (1 μM) (group 3), or CS+DecylTPP (1 μM) (group 4). In separate experiments, cells were exposed to CS plus RW by replacing UW solution alone or UW solution containing MitoQ or DecylTPP with DMEM containing 5% FCS overnight (18 h at 37° C.).
(§4) NRK cell and rat kidney mitochondria were isolated by centrifugation on a sucrose density gradient. The activity of mitochondrial respiratory complexes I, II, III, or IV were assayed spectrophotometrically using 100 μg of mitochondrial protein at 30° C. as previously described.

[5] = tested on: mitochondrial respiratory complex I; experiment: as above; format: cell-based, rat; conditions: NRK cells, 4-h CS, 1 μM
Experimental: as §3, §4

[6] = tested on: NRK cells; experiment: LDH cytotoxicity assay, CS and CS plus rewarming; format: cell-based; conditions: 1 μM
Experimental: as §3
Cell cytotoxicity was determined using the LDH-Cytotoxicity Assay Kit II (Biovision Research Products, Mountain View, Calif.) according to the manufacturer's instructions. Absorbance was measured at 450 nm using a SpectraMax 190 microplate reader and SpectraMax software (Molecular Devices, Sunnyvale, Calif.). Renal cell death was determined using TUNEL staining. Kidney sections were deparaffinized, rehydrated, and exposed to antigen retrieval (20-min incubation at 95° C. with 10 mM sodium citrate buffer, pH 6.0) followed by washing with distilled water and quenching of endogenous peroxidase. Sections were immersed in TdT labeling buffer and then incubated in a humidified chamber with the labeling reaction mix from the TAGS 2 TdT-DAB In Situ Apoptosis Detection kit (Trevigen, Inc., Gaithersburg, Md.) for 1 h at room temperature. The reaction was stopped with TdT stop buffer, and slides were subsequently washed with PBS. Sections were incubated for 10 min with streptavidin-HRP followed by development with diaminobenzidine solution, counterstaining with Mayer's hematoxylin, dehydration, and mounting with Cytoseal-60. The amount of cell death was calculated by averaging the number of cells positive for TUNEL (brown staining) in 10 different fields (cortex and medulla) (20×). All images were taken at equal exposure times (40×oil).

[7] = tested on: NRK cells; experiment: MitoSOX Red mitochondrial superoxide generation, cold storage in vitro model; format: cell-based, rat; conditions: 4 h CS at 4° C. in UW, 1 μM
Experimental: Normal rat kidney proximal tubular cells (NRK-52E; American Type Culture Collection, Manassas, Va.) were maintained in six-well 100 or 150-mm, or 150-mm plates in a humidified incubator gassed with 5% CO2 and 95% air at 37° C. in DMEM (Invitrogen, Carlsbad, Calif.) containing 5% fetal calf serum (FCS). Cells were grown to 60% confluence and divided into four treatment groups: 1) untreated (Untx), 2) CS, 3) CS+MitoQ, and 4) CS+DecylTPP. Untreated cells remained at 37° C. in DMEM containing 5% FCS (group 1). […]
as §2, with “In addition, rat kidneys were monitored for mitochondrial superoxide generation by flushing kidneys with saline through the aorta using a small catheter as described under Cold Storage Ex Vivo Model, followed by saline containing MitoSOX Red (5 μM; 10 ml/kidney) before treatment (groups 1-4). Paraffin sections were analyzed using the rhodamine filter on the Nikon Eclipse 800 microscope (20×).” left out

[8] = tested on: NRK cells; experiment: Nitrotyrosine immunocytochemistry during CS; format: cell-based, rat; conditions: 4 h CS, 1 μM
Experimental: as §3
(§5) NRK cells (groups 1-4) were assessed for nitrotyrosine formation as previously described. […] Nitrotyrosine staining was evaluated and captured with equal exposure times using a Nikon Eclipse 800 microscope (40×oil). Images were quantified by averaging the mean intensity fluorescence of five random cells in three different fields using Nikon N is Elements software. Renal tissue sections were assessed for the presence of nitrotyrosine protein adducts by nitrotyrosine immunohistochemistry. […]

[9] = tested on: NRK cells; experiment: Nitrotyrosine immunocytochemistry, CS plus rewarming; format: cell-based, rat; conditions: 4-h CS plus overnight (18 h) RW, 1 μM added during CS
Experimental: as §3, §5

[10] = tested on: rat kidneys; experiment: Periodic acid-Schiff morphological assessment of renal injury during CS; conditions: 4 h CS, 100 μM
Experimental: as §1, with “C.” for “C. (group 2). In additional experiments, kidneys were flushed with saline through the aorta using a small catheter followed by flushing the right kidney with saline containing MitoQ (100 μM) and the left kidney with saline containing DecylTPP (100 μM) (10 ml per kidney). Tissues were recovered and stored in CS+MitoQ (100 μM; right kidney) or CS+DecylTPP (100 μM; left kidney) for 4 h at 4° C. (groups 3 and 4, respectively).”
Renal sections were assessed for tissue injury using the periodic acid-Schiff reaction. […] Morphological evaluation of tubular dilation, brush border loss, and cellular debris/tubular cast formation were performed blindly with light microscopy and assessed semiquantitatively according to the following scoring system: 0, no changes; 1, mild changes; 2, moderate changes, and 3, severe changes.

[11] = tested on: mitochondrial respiratory complex II; experiment: Mitochondrial respiratory complex activity, rat kidney mitochondria after CS; conditions: rat kidneys, 4-h CS, 100 μM
Experimental: (§6) All animals were treated according to the National Institutes of Health Guide for the Care and Use of Laboratory Animals and the University of Arkansas for Medical Sciences Institutional Animal Care and Use Committee guidelines. Male Fischer 344 inbred rats (Charles Rivers Laboratories, Inc., Wilmington, Mass.) weighing between 250 and 300 g were anesthetized with ethrane, followed by shaving and prepping with betadine. […] Bulldog clamps were placed on the aorta and vena cava (proximal and distal to the renal vessels) to prevent blood flow to the kidneys. A 22-gauge surgical needle was used to puncture the rat's aorta to flush the renal grafts with saline (10 ml per kidney) using a small catheter. Once the kidneys started to turn light brown (perfusion), another vent was formed in the vena cava to allow blood flow from the kidneys. Once both kidneys were completely flushed, the right kidney was recovered and served as a control (group 1), and the left kidney was exposed to CS alone for 4 h at 4° C. (group 2). In additional experiments, kidneys were flushed with saline through the aorta using a small catheter followed by flushing the right kidney with saline containing MitoQ (100 μM) and the left kidney with saline containing DecylTPP (100 μM) (10 ml per kidney). Tissues were recovered and stored in CS+MitoQ (100 μM; right kidney) or CS+DecylTPP (100 μM; left kidney) for 4 h at 4° C. (groups 3 and 4, respectively). A thin middle section from all of the kidneys were cut and immediately fixed in 10% formalin before being embedded in paraffin for sectioning (4 μm) and histological evaluation. The remaining portion of the kidneys were quickly frozen in liquid nitrogen and stored in −80° C. until needed for biochemistry analyses.
as §4

[12] = tested on: mitochondrial respiratory complex I; experiment: as above; conditions: rat kidneys, 4-h CS, 100 μM
Experimental: as §6, §4

Structure (SMILES) | nitrotyrosine staining (one marker of peroxynitrite) [1] | protection against cell death (TUNEL) [2] | mitochondrial superoxide generation (MitoSOX Red) [3] | complex II inactivation [4] | complex I inactivation [5] | effect on cell death (LDH cytotoxicity) ([6]; CS alone) | effect on cell death (LDH cytotoxicity) ([6]; CS.RW) | CS-induced mitochondrial superoxide generation (MitoSOX Red) [7] | effect on CS-mediated nitrotyrosine formation [8] | nitrotyrosine staining during CS.RW [9] | renal histology / renal injury (periodic acid-Schiff staining) [10] | complex II inactivation [11] | complex I inactivation [12]
CNC(=N)NCCC[C@H](N)C(=O)O.O=C(O)CC(O)(CC(=O)O)C(=O)O [N^5-[imino(methylamino)methyl]-L-ornithine citrate] | inhibited |  |  |  |  |  |  |  |  |  |  |  | 
CCCCCCCCCC[P+](c1ccccc1)(c1ccccc1)c1ccccc1.[Br-] [DecylTPP, decyltriphenylphosphonium bromide, reference compound] |  | no protective benefits | comparable levels of mitochondrial superoxide to kidneys exposed to CS alone | no significant effect | no significant effect | did not reduce | did not reduce | did not offer any protection | did not decrease | no effect | did not reverse renal injury | did not have any effect | did not have any effect
